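At the GI50, growth is halved. The concentration for full growth arrest is given as TGI.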
How the values were obtained:
Assay in all cases: growth of human tumour cells (NCI), 384-well format; in the data active means GI50 below about 0.43 µM; inactive means the rest
[1] = system: 786-0 renal
[2] = system: A498 renal
[3] = system: A549 NSCLC
[4] = system: ACHN renal
[5] = system: CAKI-1 renal
[6] = system: CCRF-CEM leukemia
[7] = system: COLO 205 colon
[8] = system: DU-145 prostate
[9] = system: EKVX NSCLC
[10] = system: HCC-2998 colon
[11] = system: HCT-116 colon
[12] = system: HCT-15 colon
[13] = system: HL-60(TB) leukemia
[14] = system: HOP-62 NSCLC
[15] = system: HOP-92 NSCLC
[16] = system: HS 578T breast
[17] = system: HT29 colon
[18] = system: IGROV1 ovarian
[19] = system: K-562 leukemia
[20] = system: KM12 colon
[21] = system: LOX IMVI melanoma
[22] = system: M14 melanoma
[23] = system: MALME-3M melanoma
[24] = system: MCF7 breast
[25] = system: MDA-MB-231 breast
[26] = system: MDA-MB-468 breast
[27] = system: MOLT-4 leukemia
[28] = system: NCI-H226 lung
[29] = system: NCI-H23 lung
[30] = system: NCI-H322M lung
[31] = system: NCI-H460 NSCLC
[32] = system: NCI-H522 lung
[33] = system: NCI/ADR-RES ovarian
[34] = system: OVCAR-3 ovarian
[35] = system: OVCAR-4 ovarian
[36] = system: OVCAR-5 ovarian
[37] = system: OVCAR-8 ovarian
[38] = system: PC-3 prostate
[39] = system: RPMI-8226 leukemia
[40] = system: RXF 393 renal
[41] = system: SF-268 CNS
[42] = system: SF-295 CNS
[43] = system: SF-539 CNS
[44] = system: SK-MEL-2 melanoma
[45] = system: SK-MEL-28 melanoma
[46] = system: SK-MEL-5 melanoma
[47] = system: SK-OV-3 ovarian
[48] = system: SN12C renal
[49] = system: SNB-19 CNS
[50] = system: SNB-75 CNS
[51] = system: SR leukemia
[52] = system: SW-620 colon
[53] = system: T-47D breast
[54] = system: TK-10 renal
[55] = system: U251 glioblastoma
[56] = system: UACC-257 melanoma
[57] = system: UACC-62 melanoma
[58] = system: UO-31 renal

COc1cc2ncnc3c2cc1OCCCCCN(C)Cc1ccc(Br)cc1N3
5.34 µM: TGI [47]
active: GI50 [2] 0.383 µM | GI50 [4] 0.263 µM | GI50 [18] 0.419 µM | GI50 [26] 0.0909 µM | GI50 [30] 0.191 µM | GI50 [32] 0.287 µM | GI50 [54] 0.352 µM
> 100 µM: TGI [1] | TGI [2] | TGI [3] | TGI [5] | TGI [6] | TGI [7] | TGI [8] | TGI [9] | TGI [10] | TGI [11] | TGI [12] | TGI [14] | TGI [15] | TGI [16] | TGI [17] | TGI [19] | TGI [20] | TGI [21] | TGI [22] | TGI [23] | TGI [24] | TGI [25] | TGI [28] | TGI [29] | TGI [31] | TGI [33] | TGI [34] | TGI [35] | TGI [36] | TGI [37] | TGI [38] | TGI [40] | TGI [41] | TGI [42] | TGI [43] | TGI [45] | TGI [46] | TGI [48] | TGI [49] | TGI [50] | TGI [52] | TGI [54] | TGI [55] | TGI [56] | TGI [57] | TGI [58]
> 20.6 µM: TGI [39]
> 22 µM: TGI [44]
3.28 µM: TGI [13]
inactive: GI50 [1] 3.92 µM | GI50 [3] 2.64 µM | GI50 [5] 1.36 µM | GI50 [6] 4 µM | GI50 [7] > 21.1 µM | GI50 [8] 1.52 µM | GI50 [9] 0.612 µM | GI50 [10] 5.37 µM | GI50 [11] 3.8 µM | GI50 [12] 2.86 µM | GI50 [13] 1.66 µM | GI50 [14] 4.74 µM | GI50 [15] 3.32 µM | GI50 [16] 1.84 µM | GI50 [17] > 20.9 µM | GI50 [19] 3.88 µM | GI50 [20] 7.47 µM | GI50 [21] 3.67 µM | GI50 [22] 3.82 µM | GI50 [23] 3.33 µM | GI50 [24] 8.25 µM | GI50 [25] 7.15 µM | GI50 [27] 2.15 µM | GI50 [28] 5.87 µM | GI50 [29] 4.73 µM | GI50 [31] 3.37 µM | GI50 [33] 3.03 µM | GI50 [34] 1.07 µM | GI50 [35] 2.39 µM | GI50 [36] 3.95 µM | GI50 [37] 3.02 µM | GI50 [38] 4.02 µM | GI50 [39] 2.58 µM | GI50 [40] 3.22 µM | GI50 [41] > 100 µM | GI50 [42] 7.08 µM | GI50 [43] > 100 µM | GI50 [44] 2.22 µM | GI50 [45] > 27.3 µM | GI50 [46] 3.32 µM | GI50 [47] 0.643 µM | GI50 [48] 1.1 µM | GI50 [49] > 100 µM | GI50 [50] 4.58 µM | GI50 [51] 1.72 µM | GI50 [52] 6.27 µM | GI50 [53] 0.798 µM | GI50 [55] 5.7 µM | GI50 [56] > 100 µM | GI50 [57] 2.16 µM | GI50 [58] 1.45 µM
0.356 µM: TGI [26]
1.46 µM: TGI [30]
> 19.9 µM: TGI [4]
5.17 µM: TGI [51]
2.85 µM: TGI [18]
2.97 µM: TGI [32]
> 20.7 µM: TGI [53]

Source: PubChem BioAssay (NCI)
